Test results: US8350062B2, “Synthesis and anticancer activity of new actin-targeting small-molecule agents” (priority 2009, dated 2013)
“Also recorded” adds a separate entry of the source. Read-outs that look alike come from different tables or passages of the source.

Key:
filamentous actin = filamentous actin (Oryctolagus cuniculus, UniProt P68135); assay: TIRF microscopy of actin filament severing and depolymerization; format: biochemical, rabbit; design: Actin was purified from rabbit muscle acetone powder; tissue Pel-Freez Biologicals (acetone powder); host or cells: rabbit muscle acetone powder; conditions: for Pointed-end depolymerization rate: standard deviations 0.1-0.3 subunits/s; for Barbed-end depolymerization rate: standard deviations 0.4-0.6 subunits/s; for effect on actin depolymerization: concentrations as high as 200 μM; for severing of actin filaments compared to bistramide A (1): determined at 15 μM
Excerpt: To gain further insight into the mode of action of bistramide A, we next investigated the interaction of the natural product and its analogs with filamentous actin. […] Similar observations have been reported for several other actin-binding natural products. However, this effect could provide only limited mechanistic information and may primarily reflect the binding of a small molecule to the filaments in close proximity to the dye and quenching of pyrene fluorescence, which could be independent of the rates of actin depolymerization. Some proteins like myosin and Actin Depolymerizing Factor (ADF)/Cofilin are known to do so. Total internal reflection fluorescence (TIRF) microscopy has recently emerged as a powerful tool to investigate actin filament dynamics and its regulation by several actin-binding proteins, as well as latrunculin A, which is […] depolymerizing filamentous actin in vitro. Thus, we decided to employ TIRF microscopy to observe in real time the effects of bistramide-based compounds on actin polymerization in vitro. We believe this is the first instance where TIRF microscopy has been utilized to study the severing of actin filaments by a small molecule. We polymerized G-actin containing 25% of tetramethylrhodamine-functionalized and 10% of biotin-functionalized actin. The resulting actin filaments were immobilized onto the streptavidin-coated glass slides (in a flow cell). Analogs 1-8 were flown through the flow cell and imaged by time-lapse TIRF microscopy.
Total Internal Reflection Fluorescence Microscopy. Actin filament severing was studied using a custom-built total internal reflection fluorescence microscope. Images were collected with a 100×, 1.45 NA objective (Olympus) and an EMCCD camera (iXon, Andor Technologies). Glass flow cell (6 μl volume) was washed with 0.25 mg/ml neutravidin in F-buffer (50 mM KCl, 1 mM MgCl2, 1 mM EGTA, 10 mM imidiazole, 2 mM ATP, 0.2 mM 2-mercaptoethanol, 2 min) and blocked with 1 mg/ml BSA in F-buffer (2 min). Ten microliters of 200 nM Mg^2+-F-actin (10% biotinylated, 25% labeled with maleimide-6-tetramethylrhodamine) in TIRF-buffer (50 mM KCl, 1 mM MgCl2, 1 mM EGTA, 10 mM imidiazole, 2 mM ATP, 4.5 mg/ml glucose, 0.5% 2-mercaptoethanol, 4.3 mg/ml glucose oxidase, 0.7 mg/ml catalase) was added to the flowcell and incubated for 2 min. The chamber was rinsed with TIRF-buffer and imaged. Compounds were freshly diluted from their DMSO stock solutions in TIRF-buffer and were added to the chamber immediately after the start of each experiment. Images were collected at 0.2-s exposures every 3 s for 200 frames. For kinetics studies, movies of suitable length were obtained for each of the analog concentrations. Analysis was performed using ImageJ.

G-actin [1] = target: T1, G-actin (Oryctolagus cuniculus, UniProt P68135); assay: Isothermal titration calorimetry, binding to monomeric actin; design: species or system rabbit; conditions: for Kd: isothermal titration calorimetry, 25° C.
T1 construct: Actin was purified from rabbit muscle acetone powder; tissue Pel-Freez Biologicals (acetone powder); host or cells: rabbit muscle acetone powder
Experimental: Isothermal Titration Calorimetry. A solution of rabbit skeletal muscle actin (5-10 μM) was titrated with bistramide A or its analog (50-100 μM) at 25° C. in buffer containing 2 mM Tris HCl, pH 8.0, 0.2 mM CaCl2, 0.01% NaN3, 0.2 mM ATP, 0.2 mM 2-mercaptoethanol. Dissociation constants were calculated from the binding curve using Origin analytical software (OriginLab) with the binding model involving a single set of identical sites

F-actin in A549 cells = assay: Fluorescent visualization of F-actin in A549 cells (Alexa Fluor 488 phalloidin); format: cell-based, human; conditions: for concentration inducing actin depolymerization in A549 cells: 2 h incubation; for actin depolymerization in A549 cells: 100 μM, 2 h
Experimental: The presence of the enone increased the severing efficiency of the analogs three-fold. […] We determined whether it was the depletion of actin filaments by analogs 2-5 which was responsible for the growth inhibition of A549 cells. Each of the compounds was incubated with A549 cells for 2 h at a concentration that exceeded the GI50 value by a factor of 5. The cells were then fixed, permeabilized and filamentous actin was visualized by fluorescence microscopy following Alexa Fluor 488 phalloidin staining. […] They induced depolymerization at 150 nM for bistramide A (1), 500 nM for analog 2 and 2 μM for analog 3. Analogs 4 and 5 induced depolymerization of actin only at concentrations as high as 100 μM. […] This observation was consistent with the enhanced cell-based activity of the compounds containing the C(1)-C(4) enone moiety.
Fluorescent Visualization Of F-Actin In Cells. A549 cells grown on coverslips were incubated with analogs 4-8 (100 μM) analog 3 (2 μM) or analog 2 (500 nM) or bistramide A (150 nM) in F-12K cell culture medium for 2 h, fixed with 3% formaldehyde in PBS at 25° C. for 5 min and permeabilized with 0.1% Triton X-100 at 25° C. for 10 min. After washing with PBS, coverslips were stained with Alexa Fluor 488 Phalloidin and visualized by fluorescence microscopy.

G-actin [2] = target: T1, G-actin; assay: Interaction with actin by MALDI-TOF (covalent modification); format: biochemical, rabbit; conditions: 1:1 actin-drug complex, 30 min
Experimental: Interaction Of Bistramide-Based Compounds With Actin By MALDI-TOF. A 1:1 actin-drug complex was incubated for 30 min in 2 mM Tris-HCl, pH 8.0, 0.2 mM CaCl2, 0.01% NaN3, 0.2 mM ATP, 1 mM 2-mercaptoethanol, diluted with deionized water to 26 μM and mixed with an equal volume of a solution of 10 mg/ml sinapinic acid in 50% CH3CN— 0.1% TFA. MALDI spectra were obtained on a Voyager-DE PRO biospectrometry workstation.

A549 cells = assay: Cell viability assay (CellTiter-Glo), growth inhibition of A549 cells; format: cell-based, human; conditions: 48 h incubation
Experimental: Cell Viability Assays. All assays were performed using at least three replicate wells for each concentration tested. Original 10-25 mM DMSO stock solution of bistramide A or its analogs was diluted to 100 μM for analogs 4-8, 10 μM for analog 3, 5 μM for analog 2 and 1 μM for bistramide A (1) with F-12K cell culture media supplemented with 10% fetal bovine serum, 100 I.U./ml penicillin, 100 μg/ml streptomycin and 2 mM L-glutamine. Two-fold serial dilutions were performed and used for cell-based assays. A549 cells were grown in 96-well white plates at the density of 1,000 cells per well in 100 μl F-12K cell culture media. Cells were allowed to attach over 24 h and treated with 30 μl of the drug solution and incubated further for 48 h. After incubation, cell viability was determined using luminescence-based commercial kit (CellTiter-Glo, Promega) and luminescence measured using a Wallac Victor 3 plate reader. To measure cell growth inhibition, viability assays were performed twice: at initial time point T0 and after 48 h incubation (T48). Change in the number of viable cells was measured, and GI50 was calculated from sigmoidal plots. For analog 10, growth of A549 and PC3 cells was monitored over 96 h following addition of the drug. 100 μM was the highest concentration tested. At no point did the total DMSO conc. exceed 1%.

[3] = tested on: non-small cell broncho-pulmonary carcinoma xenografts; conditions: mouse, in vivo; cited from earlier work
[4] = mouse, in vivo; cited from earlier work
[5] = Homo sapiens, A549, 48 h, read-out: GI50
[6] = Homo sapiens, A549, 48 h, values of the text, read-out: GI50

Compound	No. of breaks per 100 μm (filamentous actin; compound at 200 μM)	Pointed-end depolymerization rate (filamentous actin; compound at 200 μM) [subunits/s]	Barbed-end depolymerization rate (filamentous actin; compound at 200 μM) [subunits/s]	Kd (G-actin [1]; read-out: Kd) [nM]	concentration inducing actin depolymerization in A549 cells (F-actin in A549 cells) [µM]	covalent modification of G-actin (G-actin [2])	GI50 (A549 cells; [5]) [nM]	actin depolymerization in A549 cells (F-actin in A549 cells)	GI50 (A549 cells)	No. of breaks per 100 μm (filamentous actin; compound at 15 μM) [per 100 μm]	Pointed-end depolymerization rate (filamentous actin; compound at 15 μM) [subunits/s]	Barbed-end depolymerization rate (filamentous actin; compound at 15 μM) [subunits/s]	severing of actin filaments compared to bistramide A (1) (filamentous actin)	also measured
C=CCC[C@@H]1CCC[C@]2(CCC[C@@H](CCCNC(=O)[C@@H](C)[C@@H](O)CNC(=O)CC3O[C@H](CC(=O)/C=C/C)CCC3C)O2)O1 (stereo partly drawn) [Analog 3]	13.3 per 100 μm	0.57	1.84	1500	2	covalently modified G-actin	323							concentration at which actin filaments were severed (filamentous actin): 200 µM; GI50 (A549 cells; [6]): 323 nM
COCCC(=O)NC[C@H](O)[C@H](C)C(=O)NCCCCC(C)C [Analog 8]	None	0.21	2.15					No depolymerization was observed	No cell -based activity					effect on actin depolymerization (filamentous actin): no effect on actin depolymerization; observable activity (actin binding by ITC and inhibition of A549 proliferation) (G-actin [1]): neither the spiroketal (analog 7) nor the central amide subunit (analog 8) alone displayed any observable activity; Kd (G-actin [1]): No actin binding
C=CCC[C@@H]1CCC[C@]2(CCC[C@@H](CCCNC(=O)[C@@H](C)[C@@H](O)CNC(=O)CCOC)O2)O1 [Analog 6]	3.4 per 100 μm	0.41	2.29	680		no cross-linking was observed	> 100000	No depolymerization was observed	No cell -based activity					concentration at which actin filaments were severed (filamentous actin): 200 µM
C=CC[C@@H]1CCCC(CC(=O)NC[C@H](O)[C@H](C)C(=O)NCCC[C@H]2O[C@@]3(CCC[C@@H](CC[C@H](C)C=C)O3)CCC2C)O1 (stereo partly drawn) [Analog 4]				319	100	no cross-linking was observed	11200			16.5	0.51	1.92	severed actin filaments albeit with lesser efficiency	
C/C=C/C(O)C/C=C/CC(C)C(O)CC(=O)NCC(O)C(C)C(=O)NCCCC1OC2(CCCC(CCC(C)/C=C(\C)C(C)O)O2)CCC1C (stereo not drawn) [bistramide K]														inhibition of tumor growth in xenograft model [3]: shown to inhibit proliferation; also recorded: effective at inhibiting tumor growth in vivo; dose with no observed toxicity [4]: up to 200 mg/kg
C=C[C@@H](C)CC[C@@H]1CCC[C@]2(CCC(C)[C@@H](CCCNC(=O)[C@@H](C)[C@@H](O)CNC(=O)CCOC)O2)O1 (stereo partly drawn) [Analog 5]				43	100	no cross-linking was observed	15100			13.0	0.55	1.93	severed actin filaments albeit with lesser efficiency	
C=C[C@@H](C)CC[C@@H]1CCC[C@]2(CCC(C)[C@@H](CCCNC(=O)[C@@H](C)[C@@H](O)CNC(=O)CC3O[C@H](CC(=O)/C=C/C)CCC3C)O2)O1 (stereo partly drawn) [Analog 2]				70	0.5	covalently modified G-actin	87			41.8	0.48	1.90	severed actin filaments albeit with lesser efficiency	potency at severing filamentous actin relative to analog 4 (filamentous actin; initial rate of severing, 1-15 μM): at least three times more potent at severing filamentous actin; GI50 (A549 cells; [6]): 87.1 nM
C/C=C/[C@H](O)CC1CCC(C)C(CC(=O)NCC(O)C(C)C(=O)NCCCC2OC3(CCCC(CCC(C)/C=C(\C)C(C)O)O3)CCC2C)O1 (stereo partly drawn) [bistramide D]														inhibition of tumor growth in xenograft model [3]: shown to inhibit proliferation; also recorded: effective at inhibiting tumor growth in vivo
C=C[C@@H](C)CC[C@@H]1CCC[C@]2(CCC(C)[C@@H](CCCNC(C)=O)O2)O1 (stereo partly drawn) [Analog 7]	0.2 per 100 μm	0.32	1.87					No depolymerization was observed	No cell -based activity					effect on actin depolymerization (filamentous actin): no effect on actin depolymerization; observable activity (actin binding by ITC and inhibition of A549 proliferation) (G-actin [1]): neither the spiroketal (analog 7) nor the central amide subunit (analog 8) alone displayed any observable activity; Kd (G-actin [1]): No actin binding
